# According to article PMC8267945, “Plumbagin, a Natural Product with Potent Anticancer Activities, Binds to and Inhibits Dihydroorotase, a Key Enzyme in Pyrimidine Biosynthesis” (International Journal of Molecular Sciences, 2021):
# Assays:
# 4T1 cells [1] = experiment: in vitro; assay type: cell-based, mouse; details: 10 μM PLU, 24 h, 4T1 cells
# Method: (§1) The 4T1 cells (1 × 10^4) were incubated with PLU in a 100 μL volume. After 24 h, the anticancer potentiality was estimated.
# in vitro = assay type: cell-based, mouse; details: mouse; PLU 2 μM, 4T1 cells; read-out: Death rate (cell mortality)
# Method: as §1
# KpDHOase = target: T1, KpDHOase (Klebsiella pneumoniae subsp. pneumoniae, UniProt A6T7D6); experiment: rapid spectrophotometric DHOase enzyme assay (hydrolysis of DHO); assay type: biochemical, Klebsiella pneumonia; details: PLU 200 μM
# T1 construct: made in house; host or cells: E. coli BL21(DE3)
# Method: (§2) A rapid spectrophotometric assay was used to determine the activity of DHOase. Briefly, the hydrolysis of DHO was measured at 25 °C as the decrease in absorbance at 230 nm. The purified DHOase was added to a 2 mL solution containing 0.5 mM DHO and 100 mM Tris–HCl at pH 8.0 to start the reaction. The extinction coefficient of DHO was 0.92 mM^−1·cm^−1 at 230 nm. The hydrolysis of DHO was monitored using a UV/Vis spectrophotometer (Hitachi U 3300; Hitachi High-Technologies, Tokyo, Japan). A unit of activity was defined as the amount of enzyme catalyzing the hydrolysis of 1 μmol DHO/min, and the specific activity was expressed in terms of units of activity per mg of enzyme. The kinetic parameters Km and Vmax were determined from a nonlinear plot by fitting the hydrolyzing rate from individual experiments to the Michaelis–Menten equation (Enzyme Kinetics module of Sigma-Plot; Systat Software, Chicago, IL, USA).
# ScDHOase = target: T2, ScDHOase (Saccharomyces cerevisiae, UniProt P20051); experiment: fluorescence quenching binding assay
# T2 construct: made in house; host or cells: E. coli BL21(DE3)
# Method: (§3) Figure 7 The data used to calculate the Kd values of various DHOases. (A) The fluorescence emission spectra of ScDHOase with PLU of different concentrations (0–200 μM; 0, 10, 20, 50, 75, 100, 125, 150, 175, and 200 μM). The decrease in intrinsic fluorescence of protein was measured at 324 nm upon excitation at 280 nm with a spectrofluorometer. […] (B) The fluorescence emission spectra of huDHOase with PLU of different concentrations (0–200 μM). (C) The fluorescence emission spectra of StDHOase with PLU of different concentrations. (D) The fluorescence emission spectra of ScDHOase–R18A with PLU of different concentrations. (E) The fluorescence emission spectra of ScDHOase–T106A with PLU of different concentrations. […] (F) An aliquot amount of PLU was added to the enzyme solution to determine the Kd. The Kd was obtained by the following equation: ΔF = ΔFmax − Kd(ΔF/[PLU]). Data points are an average of 2–3 determinations within a 10% error.
# (§4) The decrease in the intrinsic fluorescence of DHOase was measured with a spectrofluorometer (Hitachi F-2700; Hitachi High-Technologies, Japan). The Kd was obtained using the following equation: ΔF = ΔFmax − Kd(ΔF/[PLU]).
# (§5) The Kd value of the purified DHOase was determined using the fluorescence quenching method as previously described for DHOase, DHPase, and DnaB helicase. Briefly, an aliquot of the compound was added into the solution containing DHOase (1 μM) and 50 mM HEPES at pH 7.0. The decrease in the intrinsic fluorescence of DHOase was measured at 324 nm upon excitation at 280 nm and 25 °C with a spectrofluorometer (Hitachi F-2700; Hitachi High-Technologies, Japan). The Kd was obtained using the following equation: ΔF = ΔFmax − Kd(ΔF/[PLU]).
# ScDHOase–T106A = target: T3, ScDHOase–T106A (Saccharomyces cerevisiae, UniProt P20051, T106A); experiment: fluorescence quenching binding assay
# T3 construct: made in house; host or cells: E. coli BL21(DE3)
# Method: as §3, §4, §5
# ScDHOase–R18A = target: T4, ScDHOase–R18A (Saccharomyces cerevisiae, UniProt P20051, R18A); experiment: fluorescence quenching binding assay
# T4 construct: made in house; host or cells: E. coli BL21(DE3)
# Method: as §3, §4, §5
# 4T1 cells [2] = experiment: clonogenic formation assay; assay type: cell-based, mouse
# Method: A clonogenic formation assay was used to assess the 4T1 cell growth to study whether the PLU can inhibit 4T1 cell proliferation. Briefly, 4T1 cells were seeded at a density of 10^3 cells per well into 6-well plates and incubated overnight for attachment. After different treatments, plates were incubated for 5–7 days to allow clonogenic growth. After washing with PBS, colonies were fixed with methanol and stained with 0.5% crystal violet for 20 min, and the number of colonies was counted under a light microscope.
# DHPase = target: DHPase; parameters: method as in PMID 32147511; details: cited from earlier work
# StDHOase [3] = target: T5, StDHOase (Salmonella typhimurium, UniProt P06204); experiment: rapid spectrophotometric DHOase enzyme assay (hydrolysis of DHO); assay type: biochemical, Salmonella enterica serovar Typhimurium LT2; details: PLU 200 μM
# T5 construct: made in house; host or cells: E. coli BL21(DE3)
# Method: as §2
# tumor growth = details: cited from earlier work
# 4T1 cells [4] = experiment: wound-healing assay; assay type: cell-based, mouse
# Method: The wound-healing assay was performed to study whether PLU can inhibit 4T1 cell migration. Briefly, 4T1 cells were seeded in 24-well plates, incubated in serum-reduced medium for 6 h, wounded in a line across the well with a 200 μL pipette tip, and washed twice with the serum-reduced medium. After different treatments, cells were incubated for 24 h to allow migration.
# 4T1 cells [5] = experiment: chromatin condensation assay (Hoechst staining); assay type: cell-based, mouse
# Method: The apoptosis in 4T1 cells was assayed with Hoechst 33342 staining. The 4T1 cells were seeded in 6-well plates at a density of 5 × 10^5 cells per well in a volume of […] of culture medium. Cells were allowed to adhere for 16 h. After different treatments, cells were incubated for an additional 24 h, washed with PBS, stained with the Hoechst dye (1 μg·mL^−1) in the dark at RT for 10 min, and imaged using an inverted fluorescence microscope (Axiovert 200 M; Zeiss Axioplam, Oberkochen, Germany) at excitation and emission wavelengths (λem) of 360 and 460 nm, respectively. The apoptotic index was calculated as follows: apoptotic index = apoptotic cell number/(apoptotic cell number + nonapoptotic cell number).
# StDHOase [6] = target: T5, StDHOase; experiment: fluorescence quenching binding assay; parameters: species or system Salmonella enterica serovar Typhimurium LT2
# Method: as §3, §4, §5
# T5 sequence (P06204 whole entry): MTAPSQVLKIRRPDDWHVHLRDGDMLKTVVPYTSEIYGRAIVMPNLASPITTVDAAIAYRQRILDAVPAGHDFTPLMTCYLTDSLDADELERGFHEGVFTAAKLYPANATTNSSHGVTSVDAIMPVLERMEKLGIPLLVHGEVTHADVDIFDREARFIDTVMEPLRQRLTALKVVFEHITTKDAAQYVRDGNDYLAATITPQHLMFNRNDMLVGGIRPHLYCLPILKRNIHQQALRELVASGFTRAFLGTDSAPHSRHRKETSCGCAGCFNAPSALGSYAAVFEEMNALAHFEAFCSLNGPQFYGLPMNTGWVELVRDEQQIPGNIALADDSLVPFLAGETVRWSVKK
# T2 sequence (P20051 whole entry): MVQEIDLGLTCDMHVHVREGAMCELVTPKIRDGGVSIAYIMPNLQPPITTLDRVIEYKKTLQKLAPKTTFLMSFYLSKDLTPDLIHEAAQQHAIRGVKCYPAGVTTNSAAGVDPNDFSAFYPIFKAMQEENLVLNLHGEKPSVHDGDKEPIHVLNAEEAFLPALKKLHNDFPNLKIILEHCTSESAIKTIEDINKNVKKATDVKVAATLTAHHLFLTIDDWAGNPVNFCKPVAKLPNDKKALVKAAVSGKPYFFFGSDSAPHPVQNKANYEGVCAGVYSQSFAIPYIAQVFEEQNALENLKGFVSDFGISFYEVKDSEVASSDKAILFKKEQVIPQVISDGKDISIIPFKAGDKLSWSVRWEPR
# T4 sequence (P20051 whole entry R18A): as the sequence (P20051 whole entry) above, with R18A counted along it
# T3 sequence (P20051 whole entry T106A): as the sequence (P20051 whole entry) above, with T106A counted along it
# T1 sequence (A6T7D6 whole entry): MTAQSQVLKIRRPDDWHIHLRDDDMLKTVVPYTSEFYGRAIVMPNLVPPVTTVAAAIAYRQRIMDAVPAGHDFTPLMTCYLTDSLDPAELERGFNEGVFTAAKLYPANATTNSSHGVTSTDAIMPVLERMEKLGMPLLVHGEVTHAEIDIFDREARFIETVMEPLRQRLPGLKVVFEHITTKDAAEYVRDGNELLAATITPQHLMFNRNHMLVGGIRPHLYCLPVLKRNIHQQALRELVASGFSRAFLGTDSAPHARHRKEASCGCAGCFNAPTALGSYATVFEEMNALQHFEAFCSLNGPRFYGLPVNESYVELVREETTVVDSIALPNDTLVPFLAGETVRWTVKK
compound,measurement,setting,value
"CC1=CC(=O)c2c(O)cccc2C1=O [PLU, plumbagin]",cell deaths,4T1 cells [1],100%
same,"mortality at 24 h, 2 μM",in vitro,8%
same,decrease of the activity of KpDHOase,KpDHOase,69%
same,Kd,ScDHOase,64.8 ± 1.6 µM
same,quenching of the intrinsic fluorescence of ScDHOase,"ScDHOase; 200 μM compound, 324 nm, excitation 280 nm",87.7%
same,λmax of ScDHOase emission,ScDHOase; PLU 0–200 μM,from 324 to 317.5
same,λem shift of ScDHOase,"ScDHOase; PLU 0–200 μM, blue shift",6.5 nm
same,Kd,ScDHOase–T106A,70.8 ± 2.6 µM
same,quenching of ScDHOase–T106A,ScDHOase–T106A; PLU 0–200 μM,90.0%
same,λem shift of ScDHOase–T106A,ScDHOase–T106A; PLU 0–200 μM,6.5 nm
same,λmax of ScDHOase–T106A emission,ScDHOase–T106A; PLU 0–200 μM,from 328 to 321.5
same,Kd,ScDHOase–R18A,181 ± 5.9 µM
same,quenching of ScDHOase–R18A,ScDHOase–R18A; PLU 0–200 μM,75.1%
same,λem shift of ScDHOase–R18A,ScDHOase–R18A; PLU 0–200 μM,4.0 nm
same,λmax of ScDHOase–R18A emission,ScDHOase–R18A; PLU 0–200 μM,from 324.5 to 320.5
same,Colony count,4T1 cells [2]; PLU 2 μM,73%
same,suppression of proliferation and colony formation,4T1 cells [2]; pretreatment with 10 μM PLU,98%
same,IC50,DHPase,58 µM
same,decrease of the activity of StDHOase,StDHOase [3],71%
same,tumor growth in PLU-treated mice,tumor growth; animal models,significant reduction in tumor growth
same,side effects in PLU-treated mice,"tumor growth; mouse, in vivo",no side effects
same,inhibition at 10 µM,"4T1 cells [4]; Mus musculus, 10 μM PLU, 24 h, read-out: inhibition of cell migration",97%
same,Migration rate,4T1 cells [4]; PLU 2 μM,84%
same,apoptosis with DNA fragmentation,4T1 cells [5]; 10 μM PLU,100%
same,Apoptotic rate,4T1 cells [5]; PLU 2 μM,8%
same,Kd,StDHOase [6],80.3 ± 2.5 µM
same,quenching of StDHOase,StDHOase [6]; PLU 0–200 μM,85.9%
same,λem shift of StDHOase,StDHOase [6]; PLU 0–200 μM,11.0 nm
same,λmax of StDHOase emission,StDHOase [6]; PLU 0–200 μM,from 330.5 to 319.5
